In one assay the target is T1, CCR2 (Homo sapiens, UniProt P41597).
T1 construct: Membranes were prepared from THP-1 cells; endogenous in cells; host or cells: THP-1 (human acute monocytic leukaemia cells), membrane preparation
T1 sequence (P41597 1-360 isoform P41597-2): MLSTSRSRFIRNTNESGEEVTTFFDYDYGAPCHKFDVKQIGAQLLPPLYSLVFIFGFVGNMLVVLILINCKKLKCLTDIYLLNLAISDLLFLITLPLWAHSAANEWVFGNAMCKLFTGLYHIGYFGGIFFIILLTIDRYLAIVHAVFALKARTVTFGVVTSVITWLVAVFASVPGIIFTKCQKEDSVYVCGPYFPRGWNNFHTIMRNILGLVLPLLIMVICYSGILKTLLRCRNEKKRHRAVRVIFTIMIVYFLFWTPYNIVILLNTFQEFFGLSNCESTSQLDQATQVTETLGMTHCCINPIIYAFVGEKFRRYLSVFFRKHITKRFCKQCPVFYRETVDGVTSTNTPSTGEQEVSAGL
Briefly: CCR2 receptor membrane binding assay (THP-1 membranes, 125I-MCP-1, SPA beads). To be noted: THP-1 cell membranes, 125I-MCP-1, 8 h; read-out: hKi [nM] (CCR2). As to the method:
The above exemplary substances have been tested for binding to CCR2 using a binding assay as outlined herein below:
THP-1 cells (human acute monocytic leukaemia cells) were cultured under standardized conditions at 37° C. and 5% CO2 in a humidified incubator. THP-1 cells were cultivated in RPMI 1640 medium (Gibco 21875) containing 1% MEM-NEAA (Gibso 11140) 2 mM L-glutamine, 1.5 g/L sodium bicarbonate, 4.5 g/L glucose, 10 mM HEPES and 1.0 mM sodium pyruvate, 90%; 10% fetal calf serum (FCS Gibco 10500-064).
Membranes were prepared from THP-1 cells. THP-1 cells were centrifuged at 300×g at 4° C. for 10 min. The cell pellet was resuspendet in Phosphate Buffer Saline (PBS, including 10 μM Pefabloc and a protease inhibitor mix ‘complete’, Boehringer Mannheim (1 tablet/50 ml)), to a concentration of […]. The membrane preparation was performed by disrupting the cells by nitrogen […] (at 50 bar, for 1 h) in a “Nitrogen Bombe” (Parr Instrument). Cell debris was removed by centrifugation (800×g at 4° C., 1 min). The supernatant was centrifuged at 80000×g, 4° C. for 30 min to sediment the cell membranes. Usually 50 mg of protein (Bradford assay) were yielded from 1×10E9 cells. The membranes were resuspendet in 25 mM HEPES, 25 mM MgCl2, 1 mM CaCl2, 10% Glycerine for storage in aliquots at −80° C. in 25 mM HEPES, 25 mM MgCl2, 1 mM CaCl2, 10% Glycerine and stored at −80° C.
Perkin Elmer NEX 332 Jod^125 MCP-1, Stock: 2200 Ci/mmol solved in 2000 μl assay buffer, stored at −20° C. THP-1 membrane were adjusted with 25 mM HEPES, pH 7.2; 5 mM MgCl2; 0.5 mM CaCl2; 0.2% BSA assay buffer to a concentration of 2.5 μg/15 μl. Amersham Biosciences PVT-WGA Beads (RPNQ0001) were adjusted with assay buffer to a concentration of 0.24 mg/30 μl. For preparation of the membrane-bead-suspension membranes and beads were incubated for 30 min at RT under rotation (60 rpm) with a ratio of 1:2. Test compounds dissolved in 100% DMSO to a concentration of 10 mM and are further diluted with 100% DMSO to 1 mM. All additional compound dilutions were obtained with assay buffer, final 1% DMSO. Compounds, membrane-bead-suspension and [^125]MCP-1 (ca. 25000 cpm/10 μl) were incubated. Bound radioactivity was determined by scintillation counter after 8 h. Determination of affinity of test compounds (dissociation constant hKi) is calculated by iterative fitting of experimental data using the “easy sys” program, which is based on law of mass action (Schittkowski K. (1994), Numerische Mathematik, Vol. 68, 129-142).

Another assay has as its target T2, human CCR5 (Homo sapiens, UniProt P51681).
T2 construct: expressed in transfected cells; host or cells: CHO cells co-expressing Gα16, grown under puromycin and zeocin selection; membrane preparation
Description: CCR5 receptor membrane binding assay (CHO (Gα16) human CCR5 membranes, [125I]RANTES, SPA beads). To be noted: 6 h, read-out: hKi [nM] (CCR5). On the procedure:
The above exemplary substances have been tested for binding to CCR5 using a binding assay as outlined herein below:
CHO, (Gα16) human CCR5 cells were cultured under standardized conditions at 37° C. and 5% CO2 in a humidified incubator. CHO (Gα16) human CCR5 cells were cultivated in Ham's F12 (Invitrogen; #31765068) supplemented with 10 µg/ml Puromycin (Invitrogen; #A11139-03), 200 µg/ml Zeocin (Invitrogen; #45-0003) and 10% FCS (Gibco; #10500-064).
Membranes were prepared from CHO (Gα16) human CCR5 cells. Cells were cultured on […] plates (Nunc; #166508) 2-3 days before membrane preparation (usually 80-100 plates to obtain 80 mg protein).
Cells were scraped off the plates with a big scraper and washed with 2×5 ml ice cold Phosphate Buffer Saline (PBS; Invitrogen; #14040-174). Cell suspension was collected in a glass bottle (on ice). Cell suspension was harvested at 1400 rpm and 4° C. for 10 min and washed in PBS. Cell pellet was resuspended in 40 ml PBS with protease inhibitor mix ‘complete’ (Roche; #11873580001; 1 tablet/50 ml).
For gentle cell disruption the membrane preparation was performed by using a homogenizer (potter). Cells were homogenized for 5-10 min.
Membranes were centrifuged at 1000 rpm and 4° C. for 5 min. Supernatant (=membrane) was harvested in a new falcon tube and remaining cell pellet homogenized again for 5-10 min with PBS with protease inhibitor mix and centrifuged. Collected supernatant was centrifuged at 40000 rpm and 4° C. for 30 min to sediment the cell membranes.
The membranes were resuspended in 25 mM HEPES, 25 mM MgCl2, 1 mM CaCl2, 10% Glycerine for storage in aliquots at −80° C. Membranes were diluted to a concentration of 5 mg/ml (Bradford Assay).
[^125I]RANTES, Stock: 1825 Ci/mmol, 25 μCi (Bio Trend #A3-AI-676) was solved in 1000 μl assay buffer (100 mM NaCl; 10 mM MgCl2; 50 mM Tris-HCl; 1 mM EDTA; 0.1% BSA, pH 7.6), stored at −20° C.
CHO (Gα16) human CCR5 membrane were solved on ice and adjusted with assay buffer to a concentration of 2.5 μg/15 μl.
Amersham Biosciences PVT-WGA Beads (GE Healthcare; #RPNQ0001) were adjusted with assay buffer to a concentration of 8 mg/ml. For preparation of the membrane-bead-suspension, membranes and beads were incubated for 30 min at RT under rotation with a ratio of 1:2.
Test compounds dissolved in 100% DMSO to a concentration of 10 mM and are further diluted with 100% DMSO to 1 mM. All additional compound dilutions were obtained with assay buffer, final 1% DMSO. 7 μl compound dilution, 45 μl membrane-bead-suspension and 10 μl [^125I]RANTES (ca. 20000 cpm/10 μl) were incubated at RT. Bound radioactivity was determined by scintillation counter after 6 h. Determination of affinity of test compounds (dissociation constant Ki) is calculated by iterative fitting of experimental data using the “easy sys” program, which is based on law of mass action (Schittkowski K. (1994), Numerische Mathematik, Vol. 68, 129-142).

Each structure is given as a SMILES string.

T2 sequence (P51681 whole entry): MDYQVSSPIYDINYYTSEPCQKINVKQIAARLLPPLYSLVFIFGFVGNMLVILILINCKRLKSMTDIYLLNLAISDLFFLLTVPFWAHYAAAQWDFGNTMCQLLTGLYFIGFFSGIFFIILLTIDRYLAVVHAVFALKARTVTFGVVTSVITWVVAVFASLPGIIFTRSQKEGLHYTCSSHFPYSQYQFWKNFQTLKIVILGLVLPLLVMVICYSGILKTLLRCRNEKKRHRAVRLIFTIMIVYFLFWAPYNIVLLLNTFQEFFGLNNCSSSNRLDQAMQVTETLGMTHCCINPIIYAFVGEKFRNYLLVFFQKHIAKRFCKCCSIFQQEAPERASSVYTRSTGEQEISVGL

Take `Cc1c(NC[C@H]2CCC[C@@H](c3ccc(OC(F)(F)F)cc3)O2)ncnc1C(=O)N1CCC(N2CCO[C@H]3COCC[C@H]32)CC1` (single isomer, unassigned) [Example 33]: the Ki at CCR2 is 1 nM; on human CCR5 it was 48 nM.
Consider `Cc1c(NC[C@H]2CCC[C@@H](c3ccc(OC(F)(F)F)cc3)O2)ncnc1C(=O)N1CCC(N2CCO[C@@H]3COCC[C@H]32)CC1` (single isomer, unassigned) [Example 34], for which the Ki stood at 26 nM on CCR2 and 1140 nM on human CCR5.
For `Cc1c(Nc2ccc(Cl)c(Cl)c2)nc(C2CC2)nc1C(=O)N1CCC(N2CCO[C@H]3COCC[C@H]32)CC1` (single isomer, unassigned) [Example 35a], in that order: 1 nM and 160 nM.
For `Cc1c(Nc2ccc(Cl)c(Cl)c2)nc(C2CC2)nc1C(=O)N1CCC(N2CCO[C@@H]3COCC[C@@H]32)CC1` (single isomer, unassigned) [Example 35b], in that order: 9 nM and 1350 nM.
For `COc1nc(Nc2cccc(C(F)(F)F)c2)c(C)c(C(=O)N2CCC(N3CCO[C@H]4COCC[C@H]43)CC2)n1` (single isomer, unassigned) [Example 36a], in that order: 7 nM and 1550 nM.
As to `COc1nc(Nc2cccc(C(F)(F)F)c2)c(C)c(C(=O)N2CCC(N3CCO[C@@H]4COCC[C@@H]43)CC2)n1` (single isomer, unassigned) [Example 36b], the results for the Ki at CCR2 and at human CCR5 were 42 nM and 2100 nM, respectively.
`COc1nc(Nc2ccc(Cl)c(Cl)c2)c(C)c(C(=O)N2CCC(N3CCO[C@H]4COCC[C@H]43)CC2)n1` (single isomer, unassigned) [Example 37a]: the figures for the Ki on CCR2 and at human CCR5 were 1 nM and 300 nM, respectively.
As to `COc1nc(Nc2ccc(Cl)c(Cl)c2)c(C)c(C(=O)N2CCC(N3CCO[C@@H]4COCC[C@@H]43)CC2)n1` (single isomer, unassigned) [Example 37b], the figures for the Ki on CCR2 and at human CCR5 were 6 nM and 1000 nM, respectively.
For `Cc1nc(Nc2ccc(Cl)c(Cl)c2)c(C)c(C(=O)N2CCC(N3CCO[C@H]4COCC[C@H]43)CC2)n1` (single isomer, unassigned) [Example 38a], in that order: 3 nM and 260 nM.
In the case of `Cc1c(Nc2cccc(C(F)(F)F)c2)nc(C2CC2)nc1C(=O)N1CCC(N2CCO[C@H]3COCC[C@H]32)CC1` (single isomer, unassigned) [Example 39a], the Ki was 1 nM on CCR2 and 460 nM on human CCR5.
Turning to `Cc1c(Nc2cccc(C(F)(F)F)c2)nc(C2CC2)nc1C(=O)N1CCC(N2CCO[C@@H]3COCC[C@@H]32)CC1` (single isomer, unassigned) [Example 39b], at CCR2, the Ki was determined as 31 nM.
As for `Cc1nc(Nc2cccc(C(F)(F)F)c2)c(C)c(C(=O)N2CCC(N3CCO[C@H]4COCC[C@H]43)CC2)n1` (single isomer, unassigned) [Example 40b], the Ki on CCR2 came to 9 nM; on human CCR5, 640 nM.
For `Cc1c(C(=O)N2CCC(N3CCO[C@@H]4COCC[C@@H]43)CC2)ncnc1N1COc2ccc(C(F)(F)F)cc2C1` (single isomer, unassigned) [Example 41], in that order: 2 nM and 460 nM.
The corresponding values for `Cc1c(NC[C@H]2CCC[C@@H](c3ccc(C(F)(F)F)cc3)O2)ncnc1C(=O)N1CCC(N2CCO[C@@H]3COCC[C@@H]32)CC1` [Example 1] are 15 nM and 1770 nM.
For `Cc1c(NC[C@H]2CCC[C@@H](c3ccc(C(F)(F)F)cc3)O2)ncnc1C(=O)N1CCC(N2CCO[C@H]3COCC[C@H]32)CC1` [Example 2], in that order: 0.5 nM and 460 nM.
Take `Cc1c(C(=O)N2CCC(N3CCO[C@H]4COCC[C@H]43)CC2)ncnc1N1CCc2ccc(C(F)(F)F)cc2C1` [Example 3]: the Ki came to 4 nM at CCR2 and 2090 nM on human CCR5.
For `Cc1c(Nc2ccc(Cl)c(Cl)c2)ncnc1C(=O)N1CCC(N2CCO[C@H]3COCC[C@H]32)CC1` [Example 4], in that order: 4 nM and 540 nM.
The corresponding values for `Cc1c(Nc2cccc(C(F)(F)F)c2)ncnc1C(=O)N1CCC(N2CCO[C@H]3COCC[C@H]32)CC1` [Example 5] are 9 nM and 1460 nM.
For `Cc1ccc([C@@H]2CCC[C@H](CNc3ncnc(C(=O)N4CCC(N5C[C@H]6C[C@@H](N(C)S(C)(=O)=O)C[C@H]6C5)CC4)c3C)O2)cc1` [Example 6], in that order: 0.3 nM and 38 nM.
Regarding `Cc1c(C(=O)N2CCC(N3C[C@H]4C[C@@H](N(C)S(C)(=O)=O)C[C@H]4C3)CC2)ncnc1N1CCc2ccc(C(F)(F)F)cc2C1` [Example 7], the figures for the Ki at CCR2 and at human CCR5 were 0.6 nM and 420 nM, respectively.
The corresponding values for `Cc1c(NC[C@H]2CCC[C@@H](c3ccc(OC(F)(F)F)cc3)O2)ncnc1C(=O)N1CCC(N2C[C@H]3C[C@@H](N(C)S(C)(=O)=O)C[C@H]3C2)CC1` [Example 8] are 0.1 nM and 9 nM.
